Data from US20260000763A1, “Methods of Manufacturing Therapeutic Cells” (The Board of Trustees of the Leland Stanford Junior …, priority 2022, published 2026).

What was measured:
HA-CAR T cells = assay: Mass cytometry single cell metabolic regulome profiling; format: cell-based, human; conditions: CyTOF, day 14
Description: INO cultured cells also expressed higher levels of enzymes associated with glutaminolysis (GLS, GPT2), and TCA activity (IDH1, IDH2, CS, SDHA), consistent with INO induced glutamine catabolismdriving TCA through anapleurosis (FIG. 11D). Proteins of complex I and complex V of the electron transport chain were also elevated, consistent with higher oxidative phosphorylation.

HA CAR T cells = assay: Phenotype of tonically signaling (exhausted) HA CAR T cells expanded in inosine media (flow cytometry, CyTOF); format: cell-based, human; conditions: for CD62L expression / frequency of central memory cells: CD8+ HA-CAR T cells, day 21, INO in presence or absence of glucose
Method: A: CD4+vs CD8+ ratio at day 14 post-activation. N-7 donors. P values were determined by paired two-tailed t-tests. […] C: IL-2 and IFNγ secretion at day 14 post-activation. P values were determined by unpaired two-tailed t-tests.
In this example, CAR T cells were cultured in control media until day 4 post activation, followed by continued expansion in regular or inosine-containing media. Phenotype of the cells was assessed by flow cytometry at day 21 post activation. A: Frequency of CD62L+ and CCR7+HA CAR+ T cells in 8 different donors. Representative histograms are shown. B: Relative frequency of central memory (CM), naïve, terminally differentiated (TEMRA) and effector memory (EM) HA CAR T cells. N=8 donors. C: Frequency of CD62L+ and CCR7+CD19.28 CAR+ T cells in 8 different donors. Representative histograms are shown. D: Relative frequency of central memory (CM), naïve, terminally differentiated (TEMRA) and effector memory (EM) CD19.28 CAR T cells. N=8 donors.
N=2-6 donors from independent experiments.
(Top) Dot plots of representative donor shown.
9A: Schematic of the experimental design. […] Graphs represent median expression of indicated markers. […] Representative donor of n=2 donor shown. […] Data are mean+SD from triplicate wells. […] 9K: Schematic of the experimental design. […] Representative donor of n=3 donor shown. […] Representative donor of n=2 donor shown. […] (Top) Dot plots of representative donor shown. […] Representative donor of n=3 donor shown. […] N=2-4 donors from independent experiments. […] N=2-6 donors from independent experiments. […] N=2-4 donors from independent experiments. […] (Top) representative dot plots shown.
Transcriptomic and epigenetic hallmarks of exhaustion occur within 10-12 days in the HA-CAR model. To determine if INO can induce a stem-like phenotype in already exhausted T cells, HA-CAR T cells were exposed to INO on day: 4, 7, 10 and 14 post-activation, analyzing phenotype and function (FIG. 9K).
HA-CAR T cells were cultured from day 4 post-activation in control media containing glucose (11 mM), inosine only at 11 mM (INO), media containing both inosine and glucose at 11 mM or media without glucose or inosine.
To assess whether the observed increase in stemness and functionality is attributable to inosine addition or glucose deprivation, HA-CAR T cells were cultured from day 4 post-activation in control media containing 11 mM glucose (CTR), no glucose and no inosine (starvation condition), 11 mM inosine only (INO), or media containing both inosine and glucose (FIG. 7A). Proliferation was assessed at day 10.

CAR T cells = assay: Seahorse analysis, ATP5 expression and ATP levels of CAR T cells manufactured in inosine; format: cell-based
Method: A and B: Seahorse analysis of CAR T cells at day 11 post-activation. Representative graphs of n=1-2 donors are shown. P values were determined by unpaired two-tailed t-tests. C: Flow analysis of ATP5 expression by CD8+ CAR T cells at day 17 post-activation. Representative histograms of two donors are shown. D: ATP levels in CAR T cells at day 14 post activation. Results from two independent experiments are shown (n=2).
Studied next was the effect of inosine on CAR T cell metabolism. […] Furthermore, the total amount of ATP generated by CAR T cells grown in the presence of inosine was increased (FIG. 4D).

[1] = day 21, inosine supplementation

O=c1[nH]cnc2c1ncn2[C@@H]1O[C@H](CO)[C@@H](O)[C@H]1O [inosine, Inosine]
enzymes associated with glutaminolysis (GLS, GPT2) and TCA activity (IDH1, IDH2, CS, SDHA) (HA-CAR T cells): higher levels
expression of CAT2 (HA-CAR T cells): increased
proteins of complex I and complex V of the electron transport chain (HA-CAR T cells): elevated
CD62L expression (HA CAR T cells): significantly enhanced CD62L expression
frequency of central memory cells (HA CAR T cells): significantly enhanced
CD62L expression (HA CAR T cells; listed as INO): enhanced CD62L expression
frequency of central memory cells (HA CAR T cells; listed as INO): enhanced
frequency of CD8+ cells (HA CAR T cells; HA CAR T cells in INO+ media vs control, day 14): increased the frequency of CD8+ cells
expression of memory markers CD62L and CCR7 (HA CAR T cells; HA CAR T cells in INO+ media, day 21): higher expression
frequency of CD8+CD62L+ HA-CAR T cells (HA CAR T cells; INO added on day 4, 7, 10 or 14 post-activation, assessed day 21): increased frequency
frequency of terminally differentiated and effector cells (HA CAR T cells; [1]): decreased frequency
percentage of naïve and central memory HA CAR T cells (HA CAR T cells; [1]): elevated percentage
CD62L levels (HA CAR T cells; flow cytometry, CD8+ and CD4+ HA-CAR T cells, day 21): higher levels
ATP5 (Complex V) protein expression (CAR T cells; CD8+ CAR T cells, day 17, flow): increased level
bioenergetic profile (CAR T cells; Seahorse, day 11): shifting it towards oxidative phosphorylation
extracellular acidification rate (ECAR) (CAR T cells; Seahorse, day 11 post-activation): significantly decreased
total amount of ATP generated (CAR T cells; day 14): increased
